Where two headings read alike, the source gives them in different places.
What was measured:
[1] = target: T1, recombinant HIV-1 NCp7 protein (Human immunodeficiency virus type 1 group M subtype B, UniProt P03347); experiment: Trp37 zinc finger fluorescence (zinc ejection) assay; format: biochemical; parameters: Zinc Finger Reactivity, percent total decrease in flourescence / Zinc Finger Reactivity % Decrease: concentration or dose not given beside the values; conditions: for zinc finger reactivity in the presence of glutathione: 2 molar excess of glutathione; for Zinc Finger Reactivity, decrease in relative fluorescence units per 30 min. / Zinc Finger Reactivity, percent total decrease in flourescence: Table 7; for Zinc Finger Reactivity, percent total decrease in flourescence: value in parenthesis; for percent decrease in total Trp37 fluorescence (zinc ejection) at 2000 µM: 30 min incubation, read-out: Zinc Finger Reactivity % Decrease; for Zinc Finger Reactivity % Decrease: total percent decrease during a 30 min incubation; for zinc finger reactivity: result in words
T1 construct: within the nucleocapsid p7 (NCp7) protein portion of the polyprotein
Procedure: Zinc finger reactivity was measured using a Zn specific fluorochrome, TSQ, N-(6-methoxy-8-quinolyl) -p-toluenesulfonamide, assay or a Trp37 zinc finger fluorescence assay. Fluorescent measurements of the Trp37 residue in the C-terminal finger of recombinant HIV-1 NCp7 protein were performed as described by Rice (1995) Science 270:1194-1197; Rice (1997) Antimicrob. Agents Chemother. 41:419-426. Measurement of Zn ejection from both fingers was measured using the Zn-selective fluorchrome probe TSQ (Molecular Probes, Eugene OR) as described by Rice (1996) J. Med. Chem 39:3606-3616. Measurement of the ability of NCp7 to bind to a DNA oligomer, a 44 mer: […] (SEQ ID NO:1), analogous to the HIV-1 RNA packaging site was carried out as described by Huang (1998) J. Med. Chem. 41:1371-1381, see also, Rossio (1998) HIV Pathogenesis and Treatment: Keystone Symposium on Molecular and Cellular Biology, Abstract # 4082. Briefly, 50 nM NCp7 was treated with test compounds for 1 hour at RT in […] buffer containing 10% glycerol and 50 mM Tris-HCl (pH 7.5). Labeled oligomer (0.1 picomole, end labeled [^32P]) was added in an equal volume of buffer containing 10% glycerol, 50 mM Tris-HCl (pH 7.5), 400 mM KCl and 40 mM MgCl2. The reaction was continued for 15 min at room temperature, and a total of […] (or 1/4 of the total reaction volume) was separated on nondenaturing 4.5% polyacrylamide gels in 0.5X Tris-Borate electrophoresis buffer. NCp7-oligomer complexes were visualized by autoradiography.
Changes in the intrinsic fluorescence of aromatic protein moieties are commonly used to monitor a reaction which involves a change in protein conformation. In the present invention, fluorescence can be used to monitor the loss of metal ion from a zinc finger, e.g., the loss of zinc from a CCHC retroviral zinc finger protein, after contact with a thiolester of the invention. The intrinsic fluorescence of Trp 37 in the second zinc finger of HIV-1 NC protein has been used to monitor nucleic acid binding and conformation of the zinc finger complex (see, Summers (1992) supra).
Zinc ejection is measured by the ability of compounds to chemically attack the cysteines in purified NCp7 protein resulting in a loss of fluorescence due to the movement of the tryptophan 37 residue from an exposed to an internal position on the protein. Zinc ejection is measured and expressed as either percent decrease in total fluorescence or decrease in relative fluorescence units per min during a 30 min assay (RFU/min). A thiolester is considered within the scope of the invention if any amount of zinc ejection is detected. For example, compound 50 has a zinc ejection rate of 0.86 RFU/min.

[2] = test system: HIV-1 replication in TNFα-induced U1; experiment: Inhibition of p24 release from TNFα-induced U1 cells; format: cell-based
Procedure: Thiolester compounds were also tested for their ability to inhibit HIV-1 replication in TNFα-induced U1 and ACH-2 cells. U1 cells were induced with 5 ng/ml of TNFα in the presence of various concentrations of the thiolesters 44, 45 or 47. Forty-eight hours later the cultures were characterized for virus p24 antigen production and cell viability. […] Compound 44 killed 60% of the cells at 200 µM. […] Precursor processing evaluation performed as described by Turpin (1997) Antiviral Chem. Chemother. 8:60-69. Thus, thiolester PATEs initiate intracellular disulfide cross-linking of precursor polyproteins during late phase virus assembly and mediate a direct virucidal effect via an attack on the mature NCp7 retroviral zinc fingers in the cell-free virus.

[3] = Table 5, average decrease in relative fluorescence units over 30 min
[4] = Table 6, average decrease in relative fluorescence units over 30 min
[5] = Table 8, GSH +: compounds (2 mM) treated 2 h at 37°C with 4 mM reduced glutathione
[6] = Human immunodeficiency virus 1, 5 ng/ml TNFα, 48 hours, read-out: inhibition of release of HIV-1 virions (p24) from U1 cells, EC50
[7] = Human immunodeficiency virus 1, Table 9, read-out: U1 Inhibition of p24 (EC50 µM)

Compound	zinc finger reactivity in the presence of glutathione [1]	Zinc Finger Reactivity RFU/ min [1, 3] [RFU/ min]	Zinc Finger Reactivity RFU/ min [1, 4] [RFU/ min]	Zinc Finger Reactivity, decrease in relative fluorescence units per 30 min. [1] [RFU/30 MIN]	Zinc Finger Reactivity, percent total decrease in flourescence [1] [%]	Zinc Finger Reactivity RFU/ min [1, 5] [RFU/min]	percent decrease in total Trp37 fluorescence (zinc ejection) at 2000 µM [1, 5] [%]	Zinc Finger Reactivity RFU/ min ([1]; Table 8, GSH -) [RFU/min]	Zinc Finger Reactivity % Decrease ([1]; Table 8, GSH -) [%]	zinc finger reactivity [1]	EC50 [2, 6] [µM]	EC50 [2, 7] [µM]	zinc finger reactivity / zinc ejection rate [1] [RFU/min]	Zinc Finger Reactivity RFU/ min ([1]; Table 10, average decrease in relative fluorescence units over 30 min) [RFU/ min]	EC50 ([2]; Human immunodeficiency virus 1, 48 h, read-out: inhibition of release of HIV-1 virions (p24) from U1 cells, EC50) [µM]	EC50 ([2]; Human immunodeficiency virus 1, read-out: U1 Inhibition of p24 (EC50 µM)) [µM]
CC(=O)NS(=O)(=O)c1ccc(NC(=O)c2ccccc2SC(=O)CCCCBr)cc1 [Compound 44, N-[2-(5-bromovaleroylthio)benzoyl]sulfacetamide]	maintained the capacity to attack the cysteine thiols	1.8	1.8	1.8	13.3	2.4	28	6.5	60.1	promoted metal ion (zinc) ejection	94	94	–	–	–	–
CC(=O)NS(=O)(=O)c1ccc(NC(=O)c2ccccc2SC(=O)CCCC[n+]2ccccc2)cc1 [Compound 45, N-[2-(5-pyridinio-valeroylthio)benzoyl]sulfacetamide bromide]	maintained the capacity to attack the cysteine thiols	3.6	3.6	3.6	34.7	3.8	36.9	2.6	28.2	promoted metal ion (zinc) ejection	42.2	42.2	3.6	3.6	–	–
O=C(CCCC[n+]1ccccc1)Sc1ccccc1C(=O)Nc1ccc(S(=O)(=O)c2ccc([N+](=O)[O-])cc2)cc1 [Compound 47]	maintained the capacity to attack the cysteine thiols	–	4.1	4.1	17.9	1.6	21.1	1.6	24.3	promoted metal ion (zinc) ejection	–	–	–	–	10.7	10.7
